In the NIST ThermoML archive (doi:10.1021/je300240k):
Values joined by “and” are separate entries in the source; they are usually repeats but may differ in a detail not shown here. Identical values can stand only once. Numbers after ± are expanded uncertainties.

Settings: Liquid, Ebulliometric method (Recirculating still)

F/C=C/C(F)(F)F [trans-1,3,3,3-tetrafluoropropene]
Settings | vapor or sublimation pressure
223.1 K | 21 ± 2 kPa
228.08 K | 28 ± 2 kPa
232.99 K | 36 ± 2 kPa
238.04 K | 47 ± 2 kPa
243.02 K | 61 ± 2 kPa
248.04 K | 77 ± 2 kPa
253.02 K | 96 ± 2 kPa
257.14 K | 115 ± 2 kPa
258.04 K | 119 ± 2 kPa
259.15 K | 125 ± 2 kPa
261.15 K | 136 ± 2 kPa
263.1 K | 147 ± 2 kPa
263.15 K | 147 ± 2 kPa
265.15 K | 160 ± 2 kPa
267.15 K | 173 ± 2 kPa
268.01 K | 178 ± 2 kPa
269.15 K | 186 ± 2 kPa
271.15 K | 201 ± 2 kPa
273.06 K | 216 ± 2 kPa
273.15 K | 216 ± 2 kPa
275.15 K | 233 ± 2 kPa
277.15 K | 250 ± 2 kPa
278.01 K | 258 ± 2 kPa
279.15 K | 269 ± 2 kPa
281.15 K | 288 ± 2 kPa
282.93 K | 306 ± 2 kPa
283.15 K | 308 ± 2 kPa
285.15 K | 330 ± 2 kPa
287.15 K | 352 ± 2 kPa
287.89 K | 361 ± 2 kPa
289.15 K | 376 ± 2 kPa
291.15 K | 401 ± 2 kPa
292.85 K | 423 ± 2 kPa
293.15 K | 427 ± 2 kPa
295.15 K | 455 ± 2 kPa
297.15 K | 484 ± 2 kPa
297.69 K | 492 ± 2 kPa
297.87 K | 495 ± 2 kPa
298.77 K | 508 ± 2 kPa
299.15 K | 514 ± 2 kPa
301.15 K | 546 ± 2 kPa
303.15 K | 579 ± 2 kPa
303.68 K | 588 ± 2 kPa
305.15 K | 614 ± 2 kPa and 613 ± 2 kPa
307.15 K | 649 ± 2 kPa
308.82 K | 681 ± 2 kPa
309.15 K | 687 ± 2 kPa
311.15 K | 726 ± 2 kPa
312.85 K | 761 ± 2 kPa
313.15 K | 767 ± 2 kPa
315.15 K | 810 ± 2 kPa
317.15 K | 854 ± 3 kPa
317.75 K | 868 ± 3 kPa
319.15 K | 900 ± 3 kPa
321.15 K | 948 ± 3 kPa
323.1 K | 997 ± 3 kPa
323.15 K | 998 ± 3 kPa
325.15 K | 1050 ± 3 kPa
327.15 K | 1104 ± 3 kPa
328.12 K | 1130 ± 3 kPa
329.15 K | 1160 ± 3 kPa
331.15 K | 1218 ± 3 kPa
333.11 K | 1276 ± 3 kPa
333.15 K | 1278 ± 3 kPa
335.15 K | 1340 ± 3 kPa
337.15 K | 1405 ± 3 kPa
338.11 K | 1436 ± 3 kPa
339.15 K | 1472 ± 3 kPa
341.15 K | 1541 ± 3 kPa
343.1 K | 1610 ± 3 kPa
343.15 K | 1613 ± 3 kPa
348.09 K | 1799 ± 3 kPa
353.08 K | 2005 ± 3 kPa
